Reference: publication PMC10517971, “An inverse agonist of orphan receptor GPR61 acts by a G protein-competitive allosteric mechanism” (Nature Communications, 2023)
Several values for one entry are separate records, joined by “and”; a condition that tells them apart may be missing. Equal values may be shown once. Read-outs that look alike come from different tables or passages of the source.

Target: T1, human GPR61 V288A (Homo sapiens, UniProt Q9BZJ8, V288A)
T1 construct: expressed in transfected cells; host or cells: CHO-K1, transient (Fugene6)
T1 sequence (Q9BZJ8 whole entry V288A): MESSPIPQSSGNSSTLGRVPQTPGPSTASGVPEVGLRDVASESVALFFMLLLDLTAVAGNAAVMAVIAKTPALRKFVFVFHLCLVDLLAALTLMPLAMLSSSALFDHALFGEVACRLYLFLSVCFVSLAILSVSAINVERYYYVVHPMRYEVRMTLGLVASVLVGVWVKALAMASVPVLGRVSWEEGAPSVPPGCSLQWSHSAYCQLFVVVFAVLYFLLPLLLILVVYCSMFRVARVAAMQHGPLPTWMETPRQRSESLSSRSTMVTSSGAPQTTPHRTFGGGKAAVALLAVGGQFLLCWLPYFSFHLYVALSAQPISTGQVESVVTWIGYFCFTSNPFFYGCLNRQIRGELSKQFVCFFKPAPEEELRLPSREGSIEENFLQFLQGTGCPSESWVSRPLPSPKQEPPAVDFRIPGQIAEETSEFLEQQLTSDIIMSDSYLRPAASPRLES
Assay: Functional cAMP assay (HTRF), transiently transfected CHO-K1 cells, GPR61 V288A mutant
Format: cell-based
Details: for IC50: Fig. 3e table
Excerpt: The human GPR61 (reference sequence NM_031936.4) cDNA was synthesized and subcloned into pcDNA5/FRT/TO (Thermo Fisher, Pittsburgh, PA). The pcDNA5/FRT/TO/ human GPR61 plasmid was then transfected into the Flp-In™-CHO Cell Line (Thermo Fisher, Pittsburgh, PA) and a doxycycline-inducible clonal cell line was selected (CHO TREx hGPR61 WT). Sequences encoding untagged and HiBit/hemagglutinin (HA)-tagged versions of the wild-type human GPR61 were synthesized and cloned into pcDNA3.1. The HiBit ([…]) and HA ([…]) tags were sequentially included after the N-terminal initiator methionine. Four single amino acid substitutions (N137A, R140A, V288A, N345A) were then introduced in the untagged and tagged human GPR61 constructs using site-specific mutagenesis. The nucleotide sequences of all receptor constructs were confirmed by automated DNA sequencing.
Parental CHO-K1 cells were maintained at 37 °C in a humidified environment (5% CO2) and grown in Dulbecco’s Modified Eagle Medium (DMEM) F-12 media (Gibco, 11320033) supplemented with 10% FBS, 1% Glutamax (Gibco, 35050061) and 100units/ml penicillin and streptomycin (Gibco, 15140122. Cells were dissociated using a cell dissociation solution (Gibco, 13151-014), counted, and resuspended in complete culture media without antibiotics. Cells were then transiently transfected using Fugene6 (Promega) in a 384-well plate format (Corning, 3570). For each well, 7500 cells were transfected with 5 ng of receptor plasmid, 20 ng of carrier DNA (Promega, PAE4881) and 0.075 μl Fugene6 in a final volume of 25 μl. Fugene6 and DNA were separately diluted in Optimem media (Gibco, 31985070) (1.25 μl final volume each). Fugene6 and DNA solutions were then combined and incubated for 15 min at room temperature. The cell containing solution (22.5 μl) was then added and transfection reactions were mixed and transferred to the assay plate. Following 24 h incubation at 37 °C, wells were rinsed once and 25 μl of HiBit assay buffer (Phenol-red free DMEM F-12 media containing 2% FBS) was added per well. Surface and total receptor expression was measured separately by adding 25 μl per well of the extracellular (Promega, PRN2421) and lytic (Promega, PRN3040) assay solutions, respectively. Plates were incubated for 10 min at room temperature on a shaker and luciferase activity was measured using an EnVision plate reader (Perkin Elmer, Chicago, IL). Expression was normalized as percent of the wild-type receptor signal. Statistical comparisons of expression levels observed with WT versus GPR61 mutants were made by one-way analysis of variance with Dunnett’s post hoc test.
A homogeneous Time-Resolved Fluorescence (HTRF) assay (Perkin Elmer, Dynamic2 kit #) was used to assess receptor basal and inverse agonist activity at human GPR61, GPR62, and GPR101. […]

**Q.** `CCOc1cc(C)nc(N(CCOC)S(=O)(=O)c2ccc(NCc3c(F)cncc3F)nc2OC)n1` [Compound 1] was tested. Which IC50 (HiBit-tagged, read-out: GPR61 cAMP IC50 (95% CI), V288A HiBit-tagged) did it give?
**A.** 400 nM

**Q.** And the IC50 (untagged, read-out: GPR61 cAMP IC50 (95% CI), V288A Untagged)?
**A.** 406 nM

**Q.** What about the “cAMP response (Figure 3e source data)” value (HiBit V288A, concentration -6) of the same compound?
**A.** 0.67 and 0.63 and 0.87 and 1.10 and 0.64 and 0.60

**Q.** What about the “sensitivity of the receptor to inverse agonism in the cAMP assay” value (V288A mutant vs wild-type) of the same compound?
**A.** less sensitive
